Assay [1] concerns the target T1, M1 muscarinic receptor (Homo sapiens, UniProt P11229).
T1 construct: expressed in transfected cells; host or cells: CHO (M1-CHO)
T1 sequence (P11229 1-460): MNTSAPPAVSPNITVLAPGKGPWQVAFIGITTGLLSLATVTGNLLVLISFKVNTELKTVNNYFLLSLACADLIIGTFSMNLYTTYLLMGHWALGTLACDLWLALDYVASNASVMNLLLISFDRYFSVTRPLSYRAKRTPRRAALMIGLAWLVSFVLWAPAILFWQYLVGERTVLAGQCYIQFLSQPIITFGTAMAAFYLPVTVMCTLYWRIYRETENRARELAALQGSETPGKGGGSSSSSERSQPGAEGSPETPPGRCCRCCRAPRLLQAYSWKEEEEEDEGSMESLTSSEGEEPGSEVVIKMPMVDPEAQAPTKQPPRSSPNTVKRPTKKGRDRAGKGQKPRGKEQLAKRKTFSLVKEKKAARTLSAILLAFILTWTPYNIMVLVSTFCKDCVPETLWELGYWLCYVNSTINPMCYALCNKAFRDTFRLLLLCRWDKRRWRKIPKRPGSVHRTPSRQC
As to the kind of experiment: Functional mobilization of intracellular calcium (FLIPR), M1-CHO cells. Type of assay: cell-based. The conditions noted are these: for Emax: 100% efficacy is the maximum response obtained with the Carbachol control; for M1 Activity: CHO cells expressing M1, calcium mobilization. The procedure:
(§1) Functional Mobilization of Intracellular Calcium to Determine Muscarinic Receptor Activity:
(§2) CHO cells expressing muscarinic receptors (M1 to M5) are grown as monolayers in tissue culture flasks at 37° C. in a humidified atmosphere containing 5% CO2 and passaged every 3-5 days. The growth media is Dulbecco's modified eagles medium (DMEM, Gibco Cat#12430-054), containing 25 mM Hepes and supplemented with Fetal Bovine Serum (Hyclone, cat# SH30071.03), 0.1 mM of MEM non-essential amino acids (GIBCO, Cat#11140-050), 1 mM MEM Sodium Pyruvate (GIBCO Cat#11360-070) and 100 units/ml of Penicillin G and 100 μg/ml of Streptomycin (GIBCO Cat#15140-122). The recombinant muscarinic receptor cell lines are grown under antibiotic pressure with media containing 25 μg/ml zeocin and 500 μg/ml G418 (M1-CHO), 4 μg/ml puromycin, 50 μg/ml zeocin and 2.5 μg/ml blasticidin (M2 and M4-CHO) or 50 μg/ml zeocin and 4 μg/ml puromycin (M3 and M5-CHO).
(§3) Cells are harvested at 80-90% confluence using Versene (GIBCO Cat#15040-066), collected by centrifugation and seeded 18-24 hours prior to running the calcium assay at a density of 5,000-10,000 cells/well in […], clear-bottomed 384-well plates (BD Biocoat, poly-D-lysine, Cat#356663). The day of the experiment, the cells are washed with a plate washer (Bioteck Instrunents, ELX 405) using bath 1 buffer (140-mM NaCl, 4.5-mM KCl, 2-mM CaCl2, 1-mM MgCl2, 10-mM Hepes-Na, 10-mM Glucose, pH 7.4, with NaOH) containing 1 mM Probenecid. Next, the calcium dye Fluo-3 (25 μl/well of Fluo-3 AM at 4 μM, Molecular Probes F-1241, in Bath 1 buffer containing 1 mM Probenecid) is added to the 25 μl of Bath 1 remaining in each well after the plate wash and the dye is loaded at 37° C. in the tissue culture incubator for 60-90 min. The fluorescent dye is removed using the plate washer with Bath 1 containing 1 mM Probenecid, leaving 25 μl/well of this solution after the wash. Alternatively, cells can be loaded with the calcium indicator from Molecular Devices (Calcium 3 Assay Reagents, Cat # R7181) adding 5 μl of a 5× solution dye in Bath 1 containing 1 mM Probenecid (10 ml per dye flask cat# R7182 to generate a solution 20×) to 20 μl of the same buffer. After loading for 60 min, the experiment can be run without having to remove the dye.
(§4) Compounds are prepared at a 2× fold concentration in a 96-well plate (round bottom, Costar Corning cat#3656), by reconstituting the pre-spotted compounds in bath 1 containing 1 mM probenecid. The final concentration DMSO is 0.5%, and the amount of DMSO is normalized across the assay plate. To determine an agonist action of the compounds on muscarinic receptors, the reconstituted compounds are added (25 μl compound/well) to the cell assay plate (containing 25 μl/well) using the multi-channel robotic system of the FLIPR 3 Instrument (Molecular Devices, Sunnyvale, Calif.). To determine a functional inhibitory action of the compounds on muscarinic receptors, the reconstituted compounds are added (25 μl compound/well) to the assay plate and pre-incubated for 15 min prior to adding 25 μl of Carbachol at 3× the EC80 for each muscarinic subtype. Alternatively, the compounds can be co-applied simultaneously with the agonist. In both assay modes, the fluorescence is recorded for 60 sec (excitation wavelength is […] and emission wavelength 540 nm) using the FLIPR 3 instrument.
(§5) The potency, efficacy and selectivity of the muscarinic compounds were evaluated by screening the compound activity across the whole family (M1 to M5 cells). Compounds were also screened for activity on other proteins such as other GPCRs and ion channels to determine selectivity on M4 receptors.
(§6) Examples of activities and efficacies of the muscarinic compounds of formulae (I, Ia, Ib, Ic, Id, and Ie) on modulating M1 and M4 receptors are shown below in Table 4. […]

Assay [2] has as its target T2, M4 muscarinic receptor (Homo sapiens, UniProt P08173).
T2 construct: expressed in transfected cells; host or cells: CHO (M4-CHO)
T2 sequence (P08173 1-479): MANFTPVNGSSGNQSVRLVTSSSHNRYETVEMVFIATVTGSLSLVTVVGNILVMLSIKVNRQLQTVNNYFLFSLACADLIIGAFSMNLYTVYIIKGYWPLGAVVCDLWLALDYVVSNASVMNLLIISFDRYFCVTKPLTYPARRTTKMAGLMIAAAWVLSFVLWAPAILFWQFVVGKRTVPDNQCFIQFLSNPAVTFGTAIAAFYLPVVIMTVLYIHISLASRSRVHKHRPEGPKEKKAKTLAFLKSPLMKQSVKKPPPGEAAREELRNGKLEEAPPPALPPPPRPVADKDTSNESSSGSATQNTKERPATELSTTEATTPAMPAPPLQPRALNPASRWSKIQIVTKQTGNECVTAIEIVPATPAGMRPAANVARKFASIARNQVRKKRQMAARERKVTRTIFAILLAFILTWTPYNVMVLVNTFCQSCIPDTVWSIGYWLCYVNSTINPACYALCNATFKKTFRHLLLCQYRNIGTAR
Kind of assay: Functional mobilization of intracellular calcium (FLIPR), M4-CHO cells. The class given is cell-based. The conditions noted are these: for Emax: 100% efficacy is the maximum response obtained with the Carbachol control; for M4 Activity: CHO cells expressing M4, calcium mobilization. The procedure: as §1, §2, §3, §4, §5, §6
Background: Calcium flux is commonly read through the fluorescence of an indicator in the cells.

Turning to `C#CCOC(=O)N1CCCC(N2CCC3(CC2)CN(C(=O)N(C)C)c2ccccc23)CC1` (stereo not drawn) [compound 104], in assay [1], the Emax is greater than 100% and the “M1 Activity” value is listed as “+++ (activity was measured to be less than 2.0 μM)”. Besides, in assay [2], the maximal effect (Emax) is greater than 100% and the “M4 Activity” value was “+++ (activity was measured to be less than 2.0 μM)”.

On to `C#CCOC(=O)N1CC[C@@H](CN2CCC3(CC2)CN(C(=O)N(C)C)c2ccccc23)C1` [compound 97], for which, in assay [1], the Emax lay within 25 to 100% and the “M1 Activity” value is on record as “+++ (activity was measured to be less than 2.0 μM)”. Further, in assay [2], the Emax was in the range of 25 to 100% and the “M4 Activity” value is “+++ (activity was measured to be less than 2.0 μM)”.

On to `CC(=O)N1CCC2(CCN(C3CCN(c4nc(C)ns4)CC3)CC2)c2ccccc21` [compound 15], for which, in assay [1], the maximum response (Emax) lay within 25 to 100% and the “M1 Activity” value is “+++ (activity was measured to be less than 2.0 μM)”. In assay [2], the Emax lay within 25 to 100% and the “M4 Activity” value is on record as “+++ (activity was measured to be less than 2.0 μM)”.

Consider `CN(C)C(=O)N1CCC2(CCN(C3CCN(c4cnccn4)CC3)CC2)c2ccccc21` [compound 8], for which, in assay [1], the Emax was in the range of 25 to 100% and the “M1 Activity” value is “+++ (activity was measured to be less than 2.0 μM)”. In assay [2], the Emax was in the range of 25 to 100% and the “M4 Activity” value was “+++ (activity was measured to be less than 2.0 μM)”.

`CN(C)C(=O)N[C@H]1CC2(CCN(C3CC4CC[C@@H]3C4)CC2)c2ccccc21` (stereo in doubt) [Compound No. 119, 3-((S)-1′-((1R,2S,4S)-bicyclo[2.2.1]heptan-2-yl)-2,3-dihydrospiro[indene-1,4′-piperidine]-3-yl)-1,1-dimethylurea]: in assay [1], the Emax was less than 25% and the “M1 Activity” value is listed as “+ (activity was measured to be greater than 10.0 μM)”. Also, in assay [2], the Emax lay within 25 to 100% and the “M4 Activity” value is reported as “+++ (activity was measured to be less than 2.0 μM)”.

For `CCOC(=O)N1CCC(C)(N2CCC3(CC2)CN(C(=O)N(C)C)c2ccccc23)CC1` [compound 81], in assay [1], the Emax lay in the range of 25 to 100% and the “M1 Activity” value is reported as “+++ (activity was measured to be less than 2.0 μM)”. In assay [2], the Emax lay in the range of 25 to 100% and the “M4 Activity” value is reported as “+++ (activity was measured to be less than 2.0 μM)”.

Turning to `Cc1nsc(N2CCC(N3CCC4(CCN(C(=O)N(C)C)c5ccccc54)CC3)CC2)n1` [compound 6], in assay [1], the Emax fell in the range of 25 to 100% and the “M1 Activity” value is recorded as “+++ (activity was measured to be less than 2.0 μM)”. Moreover, in assay [2], the Emax lay in the range of 25 to 100% and the “M4 Activity” value was “+++ (activity was measured to be less than 2.0 μM)”.

Regarding `Cc1nsc(N2C3CCC2CC(N2CCC4(CCN(C(=O)N(C)C)c5ccccc54)CC2)C3)n1` (stereo not drawn) [compound 31], in assay [1], the Emax was 25 to 100% and the “M1 Activity” value is recorded as “+++ (activity was measured to be less than 2.0 μM)”. Also, in assay [2], the Emax lay within 25 to 100% and the “M4 Activity” value is listed as “+++ (activity was measured to be less than 2.0 μM)”.

On to `CN(C)C(=O)N1CC2(CCN(C3CCN(C(=O)OCC(F)F)CC3)CC2)c2ccccc21` [compound 42], for which, in assay [1], the Emax was 25 to 100% and the “M1 Activity” value was “+++ (activity was measured to be less than 2.0 μM)”. In assay [2], the Emax lay in the range of 25 to 100% and the “M4 Activity” value is given as “+++ (activity was measured to be less than 2.0 μM)”.

Regarding `Cc1ncc(N2CCC(N3CCC4(CCN(C(=O)N(C)C)c5ccccc54)CC3)CC2)nc1C` [Compound No. 20, 1-(1-(5,6-dimethylpyrazin-2-yl)piperidin-4-yl)-N,N-dimethyl-2′,3′-dihydrospiro[piperidine-4,4′-quinoline]-1′-carboxamide], in assay [1], the Emax lay within 25 to 100% and the “M1 Activity” value is reported as “++ (activity was measured to be from 2.0 μM to 10.0 μM)”. Also, in assay [2], the Emax lay in the range of 25 to 100% and the “M4 Activity” value is on record as “+++ (activity was measured to be less than 2.0 μM)”.

As for `CN(C)C(=O)N1CC2(CCN(C3CCN(c4cnc5ccccc5n4)CC3)CC2)c2ccccc21` [compound 78], in assay [1], the maximal response (Emax) is 25 to 100% and the “M1 Activity” value is given as “+++ (activity was measured to be less than 2.0 μM)”. For the same compound, in assay [2], the Emax fell in the range of 25 to 100% and the “M4 Activity” value is recorded as “+++ (activity was measured to be less than 2.0 μM)”.

Take `CN(C)C(=O)N1CC2(CCN(C[C@H]3CCN(C(=O)OCC(F)F)C3)CC2)c2ccccc21` [compound 63]: in assay [1], the Emax lay within 25 to 100% and the “M1 Activity” value is “+++ (activity was measured to be less than 2.0 μM)”. In assay [2], the Emax was in the range of 25 to 100% and the “M4 Activity” value is reported as “+++ (activity was measured to be less than 2.0 μM)”.

`CC(=O)N1CCC2(CCN(C3CCN(c4cnccn4)CC3)CC2)c2ccccc21` [compound 17]: in assay [1], the Emax lay within 25 to 100% and the “M1 Activity” value is “+++ (activity was measured to be less than 2.0 μM)”. In addition, in assay [2], the Emax lay within 25 to 100% and the “M4 Activity” value is recorded as “+++ (activity was measured to be less than 2.0 μM)”.

In the case of `CC(=O)N1CCC2(CCN(C3CCN(c4nccs4)CC3)CC2)c2ccccc21` [compound 24], in assay [1], the Emax lay within 25 to 100% and the “M1 Activity” value was “++ (activity was measured to be from 2.0 μM to 10.0 μM)”. Moreover, in assay [2], the Emax was less than 25% and the “M4 Activity” value was “++ (activity was measured to be from 2.0 μM to 10.0 μM)”.

For `CN(C)C(=O)N1CC2(CCN(C[C@@H]3CCN(c4cnccn4)C3)CC2)c2ccccc21` [compound 109], in assay [1], the Emax was in the range of 25 to 100% and the “M1 Activity” value is “+++ (activity was measured to be less than 2.0 μM)”. Besides, in assay [2], the Emax is greater than 100% and the “M4 Activity” value is on record as “+++ (activity was measured to be less than 2.0 μM)”.

The Emax is the size of the effect at its maximum, as opposed to the concentration needed.

The record behind these values is patent publication US8263605B2, “Modulators of muscarinic receptors” (Vertex Pharmaceutical Incorporated, priority 2006, dated 2012).
